Experimental data taken from US20230134059A1, “[…] AND METHODS FOR CORRECTING, SLOWING, REDUCING, AND/OR CONTROLLING THE PROGRESSION OF MYOPIA IN CONJUNCTION WITH USE OF ATROPINE OR RELATED COMPOUNDS” (Brien Holden Vision Institute Limited, priority 2020, published 2023).
Where two headings read alike, the source gives them in different places.

Legend:
eye of a -2.00 D myope = assay: Spherical aberration of combined spectacle lens and eye system after Atropine-induced pupil increase; assay type: in vivo; conditions: pupillary diameter increased from about 3 mm to about 6 mm with use of Atropine
Excerpt: FIG. 1A illustrates a schematic plot of pupil diameters resulting from use of Atropine, a widely used muscarinic receptor antagonist and a pharmaceutical agent for myopia therapy. […] Considering FIG. 1A, it is observed that use of 0.01% Atropine which to date is the lowest concentration used for treatment of myopia in individuals, increases the photopic pupillary diameter by approximately 1 mm. Increasing the concentration to anywhere from 0.025% to 0.1% Atropine, increases the photopic pupil size from about 2 mm to about 3 mm. With the highest concentration of 0.5% Atropine, the increase in photopic pupil size was largest and at about 3 mm. An increase in pupil size increases aberrations of the eye. […] FIG. 1B illustrates the increase in higher order aberrations from 3rd to 6th order as determined by aberrometry for the myopic eye of an individual who has a distance refractive error of approximately −2.00 D. It is observed that there is a significant increase in aberrations with a larger pupil. An increase in the pupil size may result in a functional decrement in visual performance and one or more unwanted effects such as poorer visual performance, reduced contrast, blurred vision, increased glare and increased photophobia (sensitivity to light). […]

[1] = test system: myopic children aged 8-10 years; conditions: cited from earlier work
[2] = test system: eye of individuals treated for myopia; conditions: cited from earlier work
children aged 6-12 years = conditions: concentrations greater than 0.1% Atropine; cited from earlier work
myopia progression = conditions: Atropine eye drops 0.01% to 1.0%; cited from earlier work

## CN1[C@@H]2CC[C@H]1C[C@@H](OC(=O)C(CO)c1ccccc1)C2 (some centres unmarked) [Atropine]
Eye of a -2.00 D myope
  effective increase of spherical aberration of combined spectacle lens and eye system: about +0.50 D
[1]; atropine 0.01%
  request photochromic progressive lenses, % of the time: 6%
[1]; atropine 0.1%
  request photochromic progressive lenses, % of the time: 61%
[1]; atropine 0.5%
  request photochromic progressive lenses, % of the time: 70%
[2]; 0.01% Atropine
  increase in photopic pupillary diameter: approximately 1 mm
[2]; 0.5% Atropine (highest concentration)
  increase in photopic pupil size: about 3 mm
Children aged 6-12 years
  reduction in amplitude of accommodation: more than half
Myopia progression
  efficacy in slowing myopia, concentration dependent response: the higher the concentration, the greater the efficacy
